Format in all cases: cell-based
One test addresses hKv1.3 (Homo sapiens, UniProt P22001). The test can be described thus: cell-based. The following applies: Kv1.3 (IWQ) IC50 (nM, Avg).
In test [1] the test system is IL-2 secretion from T cells in human whole blood. The following applies: read-out: WB (IL-2) IC50 (nM, Avg).
The subject of test [2] is IFN-g secretion from T cells in human whole blood. The following applies: read-out: WB (IFNg) IC50 (nM, Avg).

SMILES strings stand for the structures.

hKv1.3, sequence (P22001 whole entry): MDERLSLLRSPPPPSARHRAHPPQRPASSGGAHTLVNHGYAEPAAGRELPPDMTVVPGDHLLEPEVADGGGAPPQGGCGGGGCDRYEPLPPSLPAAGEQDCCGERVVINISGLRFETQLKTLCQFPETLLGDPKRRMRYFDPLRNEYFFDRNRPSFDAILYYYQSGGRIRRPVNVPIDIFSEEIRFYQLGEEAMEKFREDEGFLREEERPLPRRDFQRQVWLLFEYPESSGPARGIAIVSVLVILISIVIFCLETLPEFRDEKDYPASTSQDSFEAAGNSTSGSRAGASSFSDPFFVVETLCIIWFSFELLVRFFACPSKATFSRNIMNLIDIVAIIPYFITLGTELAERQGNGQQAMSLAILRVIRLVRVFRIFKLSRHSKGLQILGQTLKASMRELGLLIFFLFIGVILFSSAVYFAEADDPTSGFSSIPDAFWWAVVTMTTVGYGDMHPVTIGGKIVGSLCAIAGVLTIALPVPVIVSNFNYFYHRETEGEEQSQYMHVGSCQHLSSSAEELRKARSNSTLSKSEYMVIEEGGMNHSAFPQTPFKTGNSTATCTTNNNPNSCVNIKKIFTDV

With `CC[C@H](C)[C@@H]1NC(=O)[C@@H](NC(=O)[C@H](CO)NC(=O)[C@@H](N)CCCNC(=N)N)CSSC[C@@H](C(N)=O)NC(=O)[C@H]([C@@H](C)O)NC(=O)CNC(=O)[C@@H]2CSSC[C@@H]3NC(=O)[C@H](CCCCN)NC(=O)[C@H](Cc4ccccc4)NC(=O)[C@H](C)NC(=O)[C@H]([C@@H](C)O)NC(=O)[C@H](CSSC[C@H](NC(=O)[C@H](Cc4ccccc4)NC(=O)[C@H](CO)NC(=O)[C@H](CC(C)C)NC(=O)[C@H](CCCNC(=N)N)NC(=O)[C@H](Cc4ccc(O)cc4)NC(=O)[C@H](CCCCN)NC(=O)[C@H](CC[S+](C)[O-])NC(=O)[C@H](CO)NC(=O)[C@H](Cc4c[nH]cn4)NC(=O)[C@H](CCCCN)NC3=O)C(=O)N[C@@H](CCCNC(=N)N)C(=O)N[C@@H](CCCCN)C(=O)N[C@@H]([C@@H](C)O)C(=O)N2)NC(=O)[C@H](CCCNC(=N)N)NC(=O)[C@H](CO)NC(=O)[C@H](CCCCN)NC(=O)[C@@H]2CCCN2C(=O)[C@H]([C@@H](C)CC)NC(=O)[C@H]([C@@H](C)O)NC(=O)[C@H](CC(=O)O)NC1=O` (stereo partly drawn) [[Lys16, Met(O)21]ShK-amide], the IC50 at hKv1.3 came to 0.106 nM; in test [1], 0.24 nM; in test [2], 0.289 nM.
The matching figures for `CCCC[C@@H]1NC(=O)[C@H](CO)NC(=O)[C@H](Cc2c[nH]cn2)NC(=O)[C@H](CCCCN)NC(=O)[C@@H]2CSSC[C@@H]3NC(=O)[C@H]([C@@H](C)O)NC(=O)[C@H](CCCNC(=N)N)NC(=O)[C@H](CCCNC(=N)N)NC(=O)[C@H](CSSC[C@H](NC(=O)[C@H](CCCNC(=N)N)NC(=O)[C@H](CO)NC(=O)[C@H](CCCCN)NC(=O)[C@@H]4CCCN4C(=O)[C@H]([C@@H](C)CC)NC(=O)[C@H]([C@@H](C)O)NC(=O)[C@H](CC(=O)O)NC(=O)[C@H]([C@@H](C)CC)NC(=O)[C@@H](NC(=O)[C@H](CO)NC(=O)[C@@H](N)CCCNC(=N)N)CSSC[C@@H](C(N)=O)NC(=O)[C@H]([C@@H](C)O)NC(=O)CNC3=O)C(=O)N[C@@H]([C@@H](C)O)C(=O)N[C@@H](C)C(=O)N[C@@H](Cc3ccccc3)C(=O)N[C@@H](CCCCN)C(=O)N2)NC(=O)[C@H](Cc2ccccc2)NC(=O)[C@H](CO)NC(=O)[C@H](CC(C)C)NC(=O)[C@H](CCCNC(=N)N)NC(=O)[C@H](Cc2ccc(O)cc2)NC(=O)[C@H](CCCCN)NC1=O` [[Lys16, Nle21,Arg30]ShK-amide]: 0.423 nM, 0.953 nM and 1.9 nM.
In the same order, the values of `CCCC[C@@H]1NC(=O)[C@H](CO)NC(=O)[C@H](Cc2c[nH]cn2)NC(=O)[C@H](CCCCN)NC(=O)[C@@H]2CSSC[C@@H]3NC(=O)[C@H]([C@@H](C)O)NC(=O)[C@H](CCC(=O)O)NC(=O)[C@H](CCCNC(=N)N)NC(=O)[C@H](CSSC[C@H](NC(=O)[C@H](CCCNC(=N)N)NC(=O)[C@H](CO)NC(=O)[C@H](CCCCN)NC(=O)[C@@H]4CCCN4C(=O)[C@H]([C@@H](C)CC)NC(=O)[C@H]([C@@H](C)O)NC(=O)[C@H](CC(=O)O)NC(=O)[C@H]([C@@H](C)CC)NC(=O)[C@@H](NC(=O)[C@H](CO)NC(=O)[C@@H](N)CCCNC(=N)N)CSSC[C@@H](C(N)=O)NC(=O)[C@H]([C@@H](C)O)NC(=O)CNC3=O)C(=O)N[C@@H]([C@@H](C)O)C(=O)N[C@@H](C)C(=O)N[C@@H](Cc3ccccc3)C(=O)N[C@@H](CCCCN)C(=O)N2)NC(=O)[C@H](Cc2ccccc2)NC(=O)[C@H](CO)NC(=O)[C@H](CC(C)C)NC(=O)[C@H](CCCNC(=N)N)NC(=O)[C@H](Cc2ccc(O)cc2)NC(=O)[C@H](CCCCN)NC1=O` [[Lys16, Nle21,Glu30]ShK-amide] are 1.88 nM, 3.18 nM and 5.03 nM.

For the origin of these results see patent US20120121591A1 (priority 2009, published 2012).
